pIC50: −log10 of the molar value.
Columns and labels:
[1] = biological target: T1, Cannabinoid CB2 Receptor (Homo sapiens, UniProt P34972); experiment: Binding assay, cannabinoid CB2 receptor ([3H]-CP-55,940 displacement, SK-N-MC cell membranes); details: test concentration of 0.2 μM; human CB2 in SK-N-MC membranes; read-out: Cannabinoid CB2 Receptor Binding, percent inhibition
T1 construct: expressed in transfected cells; semi-purified membrane pellet
Description: (§1) Binding Assay for CB1 or CB2 Agonists or Inverse Agonists
(§2) The human CB1 and CB2 receptors were stably expressed in SK-N-MC cells transfected with pcDNA3 CB-1 (human) or pcDNA3 CB-2 (human). The cells were grown in T-180 cell culture flasks under standard cell culture conditions at 37° C. in a 5% CO2 atmosphere. The cells were harvested by trysinization and homogenized in a homogenization buffer (10 mM Tris, 0.2 mM MgCl2, 5 mM KCl, with protease inhibitors aprotinin, leupeptin, pepstatin A and bacitracin) and centrifuged (2000 g). The supernatant was then centrifuged in 2M sucrose (31,300 g) to produce a semi-purified membrane pellet. The pellet was resuspended in homogenization and store at −80° C.
(§3) On the day of the assay, the pellet was thawed on ice and diluted in assay buffer (50 mM Tris-HCl, 5 mM MgCl2, 2.5 mM EDTA, 0.5 mg/mL fatty acid free bovine serum albumin, pH 7.5). The diluted membrane was added with buffer, test compound or standard and the radioligand [H]^3+-CP-55,940 (0.2 nM) to the wells of a 96-well polypropylene plate. Non-specific binding was measured in wells containing 10 uM WIN 55,212. The plate was covered and incubated for 90 minutes at 30° C. The contents were then aspirated onto a Packard Unifilter GF/C filter bottom plate prewet with 0.5% polyethyleneimine. The wells of the polypropylene plate were rinsed and aspirated seven times with a 0.9% saline-0.5% Tween 20 solution. The Unifilter plate was dried, a scintillation cocktail was added to each well and the counts representing binding were quantitated in a TopCount scintillation counter.
For compounds tested, an IC50 binding value was obtained from percent inhibition studies in which various test concentrations were used. The binding value (in μM) was calculated by linear regression. For compounds without an IC50 binding value, the percent inhibition (in %) was obtained at a test concentration of 0.2 μM.

[2] = biological target: T2, Cannabinoid CB1 Receptor (Homo sapiens, UniProt P21554); experiment: Binding assay, cannabinoid CB1 receptor ([3H]-CP-55,940 displacement, SK-N-MC cell membranes); details: for inhibition at 0.2 µM: test concentration of 0.2 μM, human CB1 in SK-N-MC membranes, read-out: Cannabinoid CB1 Receptor Binding, percent inhibition
T2 construct: expressed in transfected cells; semi-purified membrane pellet
Description: as §1, §2
as §3, with “The diluted membrane was added with buffer, test compound or standard and the radioligand [H]^3+-CP-55,940 (0.2 nM) to the wells of a 96-well polypropylene plate. Non-specific binding was measured in wells containing 10 uM WIN 55,212.” left out
For compounds tested, an IC50 binding value was obtained from percent inhibition studies in which various test concentrations were used. The binding value (in μM) was calculated by linear regression.

T2 sequence (P21554 whole entry): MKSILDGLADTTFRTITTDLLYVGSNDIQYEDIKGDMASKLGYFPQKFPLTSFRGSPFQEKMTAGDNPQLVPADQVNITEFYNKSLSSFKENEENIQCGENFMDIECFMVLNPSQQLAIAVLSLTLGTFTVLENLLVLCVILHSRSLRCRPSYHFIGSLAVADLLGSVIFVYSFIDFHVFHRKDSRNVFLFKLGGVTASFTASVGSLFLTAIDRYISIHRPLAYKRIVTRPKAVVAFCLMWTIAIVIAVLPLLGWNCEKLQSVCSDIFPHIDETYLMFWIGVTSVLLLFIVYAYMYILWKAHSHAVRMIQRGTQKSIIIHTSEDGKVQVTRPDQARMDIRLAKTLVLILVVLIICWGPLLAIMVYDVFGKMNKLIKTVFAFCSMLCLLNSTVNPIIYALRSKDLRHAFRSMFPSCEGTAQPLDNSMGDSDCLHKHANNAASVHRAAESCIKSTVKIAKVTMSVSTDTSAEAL
T1 sequence (P34972 whole entry): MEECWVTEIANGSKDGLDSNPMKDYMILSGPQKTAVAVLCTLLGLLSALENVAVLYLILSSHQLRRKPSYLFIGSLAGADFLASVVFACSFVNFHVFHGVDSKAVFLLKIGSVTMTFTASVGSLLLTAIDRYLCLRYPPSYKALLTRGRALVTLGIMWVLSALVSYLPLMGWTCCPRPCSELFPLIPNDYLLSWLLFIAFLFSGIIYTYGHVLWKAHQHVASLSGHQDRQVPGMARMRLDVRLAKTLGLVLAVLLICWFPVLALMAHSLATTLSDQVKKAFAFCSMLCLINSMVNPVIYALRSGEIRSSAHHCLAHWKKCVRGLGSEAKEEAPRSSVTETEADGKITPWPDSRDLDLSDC

Structure (SMILES)	inhibition at 0.2 µM [1]	pIC50 [2]	inhibition at 0.2 µM [2]
O=C(NN1CCCCC1)c1nn(-c2ccc(Cl)cc2Cl)c2c1COC/C2=C\c1ccsc1 [Cpd 43, (7Z)-1-(2,4-dichloro-phenyl)-7-thiophen-3-ylmethylene-1,4,6,7-tetrahydro-pyrano[4,3-c]pyrazole-3-carboxylic acid piperidin-1-ylamide]	19%	7.52	83%
O=C(NN1CCCCCC1)c1nn(-c2ccc(Cl)cc2Cl)c2c1COC/C2=C\c1ccsc1 [Cpd 44, (7Z)-1-(2,4-dichloro-phenyl)-7-thiophen-3-ylmethylene-1,4,6,7-tetrahydro-pyrano[4,3-c]pyrazole-3-carboxylic acid azepan-1-ylamide]	16%	7.70	86%
O=C(NN1CC2CCCC2C1)c1nn(-c2ccc(Cl)cc2Cl)c2c1COC/C2=C\c1ccsc1 (stereo not shown) [Cpd 45, (7Z)-1-(2,4-dichloro-phenyl)-7-thiophen-3-ylmethylene-1,4,6,7-tetrahydro-pyrano[4,3-c]pyrazole-3-carboxylic acid (hexahydro-cyclopenta[c]pyrrol-2-yl)-amide]	19%	7.70	84%
CC1CCCC(C)N1NC(=O)c1nn(-c2ccc(Cl)cc2Cl)c2c1COC/C2=C\c1ccsc1 (stereo not shown) [Cpd 46, (7Z)-1-(2,4-dichloro-phenyl)-7-thiophen-3-ylmethylene-1,4,6,7-tetrahydro-pyrano[4,3-c]pyrazole-3-carboxylic acid (2,6-dimethyl-piperidin-1-yl)-amide]	20%	–	68%
O=C(NN1CCCC1)c1nn(-c2ccc(Cl)cc2Cl)c2c1COC/C2=C\c1ccsc1 [Cpd 47, (7Z)-1-(2,4-dichloro-phenyl)-7-thiophen-3-ylmethylene-1,4,6,7-tetrahydro-pyrano[4,3-c]pyrazole-3-carboxylic acid pyrrolidin-1-ylamide]	9%	7.52	70%
O=C(N[C@H](CO)c1ccccc1)c1nn(-c2ccc(Cl)cc2Cl)c2c1COC/C2=C\c1ccsc1 [Cpd 48, (7Z)-1-(2,4-dichloro-phenyl)-7-thiophen-3-ylmethylene-1,4,6,7-tetrahydro-pyrano[4,3-c]pyrazole-3-carboxylic acid [(1S)-2-hydroxy-1-phenyl-ethyl]-amide]	17%	–	36%
C[C@@H](NC(=O)c1nn(-c2ccc(Cl)cc2Cl)c2c1COC/C2=C\c1ccc(Cl)s1)c1ccccc1 [Cpd 49, (7Z)-7-(5-chloro-thiophen-2-ylmethylene)-1-(2,4-dichloro-phenyl)-1,4,6,7-tetrahydro-pyrano[4,3-c]pyrazole-3-carboxylic acid [(R)-1-phenyl-ethyl]-amide]	10%	7.70	84%
C[C@H](NC(=O)c1nn(-c2ccc(Cl)cc2Cl)c2c1COC/C2=C\c1ccc(Cl)s1)C1CCCCC1 [Cpd 50, (7Z)-7-(5-chloro-thiophen-2-ylmethylene)-1-(2,4-dichloro-phenyl)-1,4,6,7-tetrahydro-pyrano[4,3-c]pyrazole-3-carboxylic acid [(S)-1-cyclohexyl-ethyl]-amide]	2%	–	34%
C[C@H](NC(=O)c1nn(-c2ccc(Cl)cc2Cl)c2c1COC/C2=C\c1ccc(Cl)s1)c1ccccc1 [Cpd 51, (7Z)-7-(5-chloro-thiophen-2-ylmethylene)-1-(2,4-dichloro-phenyl)-1,4,6,7-tetrahydro-pyrano[4,3-c]pyrazole-3-carboxylic acid [(S)-1-phenyl-ethyl]-amide]	15%	–	48%
C[C@@H](NC(=O)c1nn(-c2ccc(Cl)cc2Cl)c2c1COC/C2=C\c1ccc(Cl)s1)C1CCCCC1 [Cpd 52, (7Z)-7-(5-chloro-thiophen-2-ylmethylene)-1-(2,4-dichloro-phenyl)-1,4,6,7-tetrahydro-pyrano[4,3-c]pyrazole-3-carboxylic acid [(R)-1-cyclohexyl-ethyl]-amide]	21%	8.05	88%
O=C(NN1CCCCCC1)c1nn(-c2ccc(Cl)cc2Cl)c2c1COC/C2=C\c1ccc(Cl)s1 [Cpd 53, (7Z)-7-(5-chloro-thiophen-2-ylmethylene)-1-(2,4-dichloro-phenyl)-1,4,6,7-tetrahydro-pyrano[4,3-c]pyrazole-3-carboxylic acid azepan-1-ylamide]	10%	8.00	83%
O=C(NN1CCCCC1)c1nn(-c2ccc(Cl)cc2Cl)c2c1COC/C2=C\c1ccc(Cl)s1 [Cpd 54, (7Z)-7-(5-chloro-thiophen-2-ylmethylene)-1-(2,4-dichloro-phenyl)-1,4,6,7-tetrahydro-pyrano[4,3-c]pyrazole-3-carboxylic acid piperidin-1-ylamide]	13%	7.70	78%
CC1CCCC(C)N1NC(=O)c1nn(-c2ccc(Cl)cc2Cl)c2c1COC/C2=C\c1ccc(Cl)s1 (stereo not shown) [Cpd 55, (7Z)-7-(5-chloro-thiophen-2-ylmethylene)-1-(2,4-dichloro-phenyl)-1,4,6,7-tetrahydro-pyrano[4,3-c]pyrazole-3-carboxylic acid (2,6-dimethyl-piperidin-1-yl)-amide]	11%	–	65%
O=C(NN1CC2CCCC2C1)c1nn(-c2ccc(Cl)cc2Cl)c2c1COC/C2=C\c1ccc(Cl)s1 (stereo not shown) [Cpd 56, (7Z)-7-(5-chloro-thiophen-2-ylmethylene)-1-(2,4-dichloro-phenyl)-1,4,6,7-tetrahydro-pyrano[4,3-c]pyrazole-3-carboxylic acid (hexahydro-cyclopenta[c]pyrrol-2-yl)-amide]	0%	7.40	74%
O=C(NN1CCCC1)c1nn(-c2ccc(Cl)cc2Cl)c2c1COC/C2=C\c1ccc(Cl)s1 [Cpd 57, (7Z)-7-(5-chloro-thiophen-2-ylmethylene)-1-(2,4-dichloro-phenyl)-1,4,6,7-tetrahydro-pyrano[4,3-c]pyrazole-3-carboxylic acid pyrrolidin-1-ylamide]	15%	–	67%
O=C(N[C@H](CO)c1ccccc1)c1nn(-c2ccc(Cl)cc2Cl)c2c1COC/C2=C\c1ccc(Cl)s1 [Cpd 58, (7Z)-7-(5-chloro-thiophen-2-ylmethylene)-1-(2,4-dichloro-phenyl)-1,4,6,7-tetrahydro-pyrano[4,3-c]pyrazole-3-carboxylic acid [(S)-2-hydroxy-1-phenyl-ethyl]-amide]	0%	–	59%
CC(NC(=O)c1nn(-c2ccc(Cl)cc2Cl)c2c1COC/C2=C\c1ccc(Cl)s1)c1ccccn1 (stereo not shown) [Cpd 60, (7Z)-7-(5-chloro-thiophen-2-ylmethylene)-1-(2,4-dichloro-phenyl)-1,4,6,7-tetrahydro-pyrano[4,3-c]pyrazole-3-carboxylic acid (1-pyridin-2-yl-ethyl)-amide]	7%	–	58%
C[C@@H](NC(=O)c1nn(-c2ccc(Cl)cc2Cl)c2c1COC/C2=C\c1ccc(Cl)s1)c1ccccn1 [Cpd 61, (7Z)-7-(5-chloro-thiophen-2-ylmethylene)-1-(2,4-dichloro-phenyl)-1,4,6,7-tetrahydro-pyrano[4,3-c]pyrazole-3-carboxylic acid [(R)-1-pyridin-2-yl-ethyl]-amide]	9.5%	7.30	84%

— patent publication US20100069341A1, “TETRAHYDRO-PYRANOPYRAZOLE CANNABINOID MODULATORS” (priority 2005, published 2010)
